Data: PMC7587356, “High-Throughput Screening for Inhibitors of the SARS-CoV-2 Protease Using a FRET-Biosensor” (Molecules, 2020)
Where a name gives a salt, the structure may show the parent alone. Read-outs that look alike come from different tables or passages of the source.

Target: SARS-CoV-2 3CLpro (Severe acute respiratory syndrome coronavirus 2, UniProt P0DTD1)
Assay: biochemical
Assay type: biochemical
Design: Replicate_1 / Replicate_2 / mean / mean (LOPAC_screen_w_protease): unit not given here
Conditions: for inhibition at 5 µM: 4 h; for mean (LOPAC screen with protease) / Replicate_1 (LOPAC screen with protease) / Replicate_2 (LOPAC screen with protease): primary screen at 5 µM
[1] = read-out: Replicate_1 (LOPAC_screen_w_protease)
[2] = read-out: Replicate_2 (LOPAC_screen_w_protease)
[3] = LOPAC1280 primary screen with protease, 5 µM compound, mean of two replicates
[4] = LOPAC1280 primary screen with protease, 5 µM compound, replicate 1
[5] = LOPAC1280 primary screen with protease, 5 µM compound, replicate 2
[6] = sheet LOPAC_screen_w_protease, primary screen of LOPAC1280 at 5 µM with protease, mean of the two replicates
[7] = sheet LOPAC_screen_w_protease, primary screen of LOPAC1280 at 5 µM with protease, replicate 1
[8] = sheet LOPAC_screen_w_protease, primary screen of LOPAC1280 at 5 µM with protease, replicate 2
[9] = LOPAC1280 primary screen with protease, 5 µM compound, replicate 1, read-out: Replicate_1 (LOPAC_screen_w_protease)
[10] = LOPAC1280 primary screen with protease, 5 µM compound, replicate 2, read-out: Replicate_2 (LOPAC_screen_w_protease)
[11] = sheet LOPAC_screen_w_protease, LOPAC1280 primary screen at 5 µM, with protease, mean of the two replicates
[12] = sheet LOPAC_screen_w_protease, LOPAC1280 primary screen at 5 µM, with protease, replicate 1
[13] = sheet LOPAC_screen_w_protease, LOPAC1280 primary screen at 5 µM, with protease, replicate 2
[14] = sheet LOPAC_screen_w_protease, primary screen of LOPAC1280 at 5 µM with protease, mean of the two replicates, read-out: mean
[15] = sheet LOPAC_screen_w_protease, primary screen of LOPAC1280 at 5 µM with protease, replicate 1, read-out: Replicate_1
[16] = sheet LOPAC_screen_w_protease, primary screen of LOPAC1280 at 5 µM with protease, replicate 2, read-out: Replicate_2
[17] = LOPAC1280 primary screen with protease, 5 µM compound, mean of the two replicates
[18] = sheet LOPAC_screen_w_protease, primary screen with protease, 5 µM, mean of two replicates
[19] = sheet LOPAC_screen_w_protease, primary screen with protease, 5 µM, replicate 1
[20] = sheet LOPAC_screen_w_protease, primary screen with protease, 5 µM, replicate 2
[21] = sheet LOPAC_screen_w_protease, mean of two replicates
[22] = sheet LOPAC_screen_w_protease, replicate 1
[23] = sheet LOPAC_screen_w_protease, replicate 2

Work on `CNC(=C[N+](=O)[O-])NCCSCc1ccc(CN(C)C)o1` [Ranitidine hydrochloride] yielded an inhibition at 5 µM [1] of 2.07% and an inhibition at 5 µM [2] of 1.3%.

`COCC(=O)O[C@]1(CCN(C)CCCc2nc3ccccc3[nH]2)CCc2cc(F)ccc2[C@@H]1C(C)C` [Mibefradil dihydrochloride] showed an inhibition at 5 µM (sheet LOPAC_screen_w_protease, LOPAC1280 primary screen with protease, 5 µM compound, mean of the two replicates, read-out: mean) of 4.42%, an inhibition at 5 µM (sheet LOPAC_screen_w_protease, LOPAC1280 primary screen with protease, 5 µM compound, replicate 1, read-out: Replicate_1) of 3.3% and an inhibition at 5 µM (sheet LOPAC_screen_w_protease, LOPAC1280 primary screen with protease, 5 µM compound, replicate 2, read-out: Replicate_2) of 5.54%.

In the case of `CC(=O)[C@H]1CC[C@H]2[C@@H]3CC=C4C[C@@H](OS(=O)(=O)[O-])CC[C@]4(C)[C@H]3CC[C@]12C.[Na+]` [Pregnenolone sulfate sodium], the mean (sheet LOPAC_screen_w_protease, LOPAC1280 at 5 µM, mean of two replicates) is reported as 1.045, the Replicate_1 (sheet LOPAC_screen_w_protease, LOPAC1280 at 5 µM, replicate 1) is reported as 0.04623 and the Replicate_2 (sheet LOPAC_screen_w_protease, LOPAC1280 at 5 µM, replicate 2) is reported as 2.043.

`CC(C)[C@@]1(NC(=O)[C@@H]2C=C3c4cccc5[nH]cc(c45)C[C@H]3N(C)C2)O[C@@]2(O)[C@@H]3CCCN3C(=O)[C@H](Cc3ccccc3)N2C1=O` [Ergocristine] gave an inhibition at 5 µM (read-out: Replicate_1) of 4.04%, an inhibition at 5 µM (read-out: Replicate_2) of 2.86% and an inhibition at 5 µM (read-out: mean) of 3.45%.

`COC(=O)[C@H]1[C@H]2C[C@H]3c4[nH]c5ccccc5c4CCN3C[C@H]2CC[C@@H]1O` [Rauwolscine hydrochloride] was tested, and the inhibition at 5 µM (sheet LOPAC_screen_w_protease, primary screen with protease, compound at 5 µM, mean of two replicates, read-out: mean) was 3.1%, the inhibition at 5 µM (sheet LOPAC_screen_w_protease, primary screen with protease, compound at 5 µM, replicate 1, read-out: Replicate_1) was 3.55% and the inhibition at 5 µM (sheet LOPAC_screen_w_protease, primary screen with protease, compound at 5 µM, replicate 2, read-out: Replicate_2) was 2.65%.

For `NC(CO)(CO)CO.O=C(c1ccccc1)c1ccc2n1CCC2C(=O)O` (centres unmarked) [Ketorolac tris salt], the “mean (LOPAC_screen_w_protease)” value [3] was 1.7087, the “Replicate_1 (LOPAC_screen_w_protease)” value [4] was 1.974 and the “Replicate_2 (LOPAC_screen_w_protease)” value [5] was 1.443.

With `CC(COc1ccc(/C=C/c2ccccc2)cc1)[N+](C)(C)C.[I-]` (centres unmarked) the mean (sheet LOPAC_screen_w_protease, LOPAC1280 primary screen with protease, 5 µM compound, mean of the two replicates) was 5.814, the Replicate_1 (sheet LOPAC_screen_w_protease, LOPAC1280 primary screen with protease, 5 µM compound, replicate 1) was 7.703 and the Replicate_2 (sheet LOPAC_screen_w_protease, LOPAC1280 primary screen with protease, 5 µM compound, replicate 2) was 3.926.

`CN(C)CCC=C1c2ccccc2C=Cc2ccccc21` [Cyclobenzaprine hydrochloride] was tested, and the “mean (LOPAC_screen_w_protease)” value was 2.047, the inhibition at 5 µM [1] was 3.03% and the inhibition at 5 µM [2] was 1.06%.

`Cc1scc2c1N(C(=O)CN1CCN(C)CC1)c1ccccc1NC2=O` [Telenzepine dihydrochloride] showed an inhibition at 5 µM (sheet LOPAC_screen_w_protease, primary screen with protease, 5 µM, mean of two replicates, read-out: mean) of 0.413%, an inhibition at 5 µM (sheet LOPAC_screen_w_protease, primary screen with protease, 5 µM, replicate 1, read-out: Replicate_1) of -0.915% and an inhibition at 5 µM (sheet LOPAC_screen_w_protease, primary screen with protease, 5 µM, replicate 2, read-out: Replicate_2) of 1.74%.

With `NC1(C(=O)O)CCc2cc(C(=O)O)ccc21` (centres unmarked) [AIDA] the mean [6] was 3.327, the Replicate_1 [7] was 3.929 and the Replicate_2 [8] was 2.7246.

For `NCCc1c[nH]c2ccc(O)cc12` [Serotonin hydrochloride], the inhibition at 5 µM [9] was 2.37%, the inhibition at 5 µM [10] was 1.09% and the “mean (LOPAC_screen_w_protease)” value [3] was 1.729.

`CC1(C)CCC2=C(O1)c1ccccc1C(=O)C2=O` [beta-Lapachone] was tested, and the inhibition at 5 µM (read-out: Replicate_1) was 0.593%, the inhibition at 5 µM (read-out: Replicate_2) was 0.52% and the inhibition at 5 µM (read-out: mean) was 0.557%.

Molecule `COC(=O)c1c(-c2cc(OC)c(OC)c(OC)c2)c2ccc(OCc3ccccn3)cc2c(=O)n1-c1ccc(N)cc1.O=S(=O)(O)O` [T-1032] has a mean [11] of 0.5404, a Replicate_1 [12] of 1.02 and a Replicate_2 [13] of 0.06128.

Work on `NC1CCN(O)C1=O` (racemic) [(±)-HA-966] yielded a Replicate_1 of 0.2172, a Replicate_2 of 1.666 and a mean of 0.9415.

Molecule `CC(N)C(=O)OC(C)(C)Cc1ccc(Cl)cc1` (centres unmarked) [Alaproclate hydrochloride] has an inhibition at 5 µM [14] of 3.56%, an inhibition at 5 µM [15] of 2.81% and an inhibition at 5 µM [16] of 4.3%.

In the case of “Phenylbenzene-omega-phosphono-alpha-amino acid”, the mean [11] is reported as 0.7227, the Replicate_1 [12] is reported as 0.6047 and the Replicate_2 [13] is reported as 0.8406.

Work on `C/C(=C\c1ccc(C(=O)O)cc1)c1ccc2c(c1)C(C)(C)CCC2(C)C` [TTNPB] yielded a mean [6] of 3.657, a Replicate_1 [7] of 5.544 and a Replicate_2 [8] of 1.7694.

In the case of `Cn1c(=O)[nH]c2ncn(C)c2c1=O` [1,7-Dimethylxanthine], the inhibition at 5 µM [9] is reported as 1.95%, the inhibition at 5 µM [10] is reported as 1.66% and the “mean (LOPAC_screen_w_protease)” value [17] is reported as 1.802.

`CC1=C(C(=O)O)N2C(=O)[C@@H](NC(=O)[C@H](N)c3ccccc3)[C@H]2SC1.O` [Cephalexin hydrate] was tested, and the “mean (LOPAC_screen_w_protease)” value [3] was 1.619, the “Replicate_1 (LOPAC_screen_w_protease)” value [4] was 2.163 and the “Replicate_2 (LOPAC_screen_w_protease)” value [5] was 1.074.

With `C[N+]1(C)C2CCC1CC(OC(=O)c1c[nH]c3ccccc13)C2.[I-]` (centres unmarked) the mean [6] was 3.717, the Replicate_1 [7] was 3.9921 and the Replicate_2 [8] was 3.441.

In the case of `N=C(N)NC(CCC(=O)O)C(=O)O` (stereo not drawn) [alpha-Guanidinoglutaric acid], the “mean (LOPAC_screen_w_protease)” value [17] is reported as 1.992, the “Replicate_1 (LOPAC_screen_w_protease)” value [4] is reported as 2.352 and the “Replicate_2 (LOPAC_screen_w_protease)” value [5] is reported as 1.632.

`O=C([O-])CCC(NC(=O)c1ccccc1C(=O)[O-])C(=O)[O-].[Na+].[Na+].[Na+]` [Phthalamoyl-L-glutamic acid trisodium] gave a mean [18] of 0.2394, a Replicate_1 [19] of 0.8142 and a Replicate_2 [20] of -0.3354.

`COc1ccc(CNC(=O)/C=C/c2ccc3[nH]cc(CCN(C)C)c3c2)cc1` [GR 4661] showed a mean [11] of 0.4567, a Replicate_1 [12] of 1.411 and a Replicate_2 [13] of -0.4976.

In the case of `CCN(CC)C(=O)N[C@H]1C[C@@H]2c3cccc4[nH]cc(c34)C[C@H]2N(C)C1` [R(+)-Terguride], the mean [11] is reported as 0.4418, the Replicate_1 [12] is reported as 0.9662 and the Replicate_2 [13] is reported as -0.08256.

In the case of `Oc1ccc2c3c1O[C@H]1c4oc5ccccc5c4C[C@@]4(O)[C@@H](C2)N(CC2CC2)CC[C@]314` [Naltriben methanesulfonate], the inhibition at 5 µM (read-out: Replicate_1) is reported as 4.4%, the inhibition at 5 µM (read-out: Replicate_2) is reported as 3% and the inhibition at 5 µM (read-out: mean) is reported as 3.7%.

In the case of `N#Cc1c(-c2ccccc2)no[n+]1[O-]` [4-Phenyl-3-furoxancarbonitrile], the mean (sheet LOPAC_screen_w_protease, primary screen with protease, compound at 5 µM, mean of two replicates) is reported as 2.827, the Replicate_1 (sheet LOPAC_screen_w_protease, primary screen with protease, compound at 5 µM, replicate 1) is reported as 3.156 and the Replicate_2 (sheet LOPAC_screen_w_protease, primary screen with protease, compound at 5 µM, replicate 2) is reported as 2.497.

For `CNC[C@H](O)c1ccc(O)c(O)c1` [(-)-Epinephrine bitartrate], the inhibition at 5 µM (read-out: Replicate_1) was 5.37%, the inhibition at 5 µM (read-out: Replicate_2) was 0.847% and the inhibition at 5 µM (read-out: mean) was 3.11%.

`Br.CN1CCc2c(cc(O)c(O)c2Cl)C(c2cccc(Cl)c2)C1` (centres unmarked) [SKF 83565 hydrobromide] was tested, and the “mean (LOPAC screen with protease)” value [21] was 22.1474, the “Replicate_1 (LOPAC screen with protease)” value [22] was 23.5852 and the “Replicate_2 (LOPAC screen with protease)” value [23] was 20.7095.

With `C[C@@](Cc1ccc(O)c(O)c1)(NN)C(=O)O` [S-(-)-Carbidopa] the “mean (LOPAC screen with protease)” value [21] was 17.4897, the “Replicate_1 (LOPAC screen with protease)” value [22] was 19.273 and the “Replicate_2 (LOPAC screen with protease)” value [23] was 15.7065.

`CC(=O)O[C@H]1C[C@@H]2CC[C@@H]3[C@H](CC[C@@]4(C)[C@H]3C[C@H]([N+]3(C)CCCCC3)[C@@H]4OC(C)=O)[C@@]2(C)C[C@@H]1[N+]1(C)CCCCC1` [Pancuronium bromide] gave an inhibition at 5 µM [14] of 3.86%, an inhibition at 5 µM [15] of 2.32% and an inhibition at 5 µM [16] of 5.41%.

For `COc1ccc2c(c1)c(CC(=O)O)c(C)n2C(=O)c1ccccc1`, the mean (sheet LOPAC_screen_w_protease, primary screen with protease, mean of two replicates) was 2.541, the Replicate_1 (sheet LOPAC_screen_w_protease, primary screen with protease, replicate 1) was 2.008 and the Replicate_2 (sheet LOPAC_screen_w_protease, primary screen with protease, replicate 2) was 3.073.

For `Nc1ncn([C@@H]2O[C@H](CO)[C@@H](O)[C@H]2O)c(=O)n1` [5-azacytidine], the “mean (LOPAC screen with protease)” value [21] was 9.256, the “Replicate_1 (LOPAC screen with protease)” value [22] was 17.5612 and the “Replicate_2 (LOPAC screen with protease)” value [23] was 0.9518.

`Clc1ccc(C(c2ccccc2Cl)C(Cl)Cl)cc1` (centres unmarked) showed a mean [18] of -0.2273, a Replicate_1 [19] of 0.8298 and a Replicate_2 [20] of -1.2843.

With `N=c1ccn2c(n1)O[C@H]1[C@H](O)[C@@H](CO)O[C@H]12` [Ancitabine hydrochloride] the inhibition at 5 µM (sheet LOPAC_screen_w_protease, primary screen with protease, mean of two replicates, read-out: mean) was 2.45%, the inhibition at 5 µM (sheet LOPAC_screen_w_protease, primary screen with protease, replicate 1, read-out: Replicate_1) was 2.42% and the inhibition at 5 µM (sheet LOPAC_screen_w_protease, primary screen with protease, replicate 2, read-out: Replicate_2) was 2.49%.
